Source: article PMC10002956, “Tumour suppressor PTEN activity is differentially inducible by myo‐inositol phosphates” (Journal of Cellular and Molecular Medicine, 2023)

Legend:
[1] = molecular target: T1, PTEN (phosphatase and tensin homologue deleted on Chromosome 10) (Homo sapiens, UniProt P60484); assay: malachite green phosphate release from PIP3; format: biochemical; settings: PIP3 200 μM, PTEN 50 μM, IHP 2.5-40 mM; Tris-HCl pH 7.5, 10 mM DTT, 37 °C
T1 construct: commercial recombinant PTEN; immobilised on CM5 chip for SPR
T1 sequence (P60484 2-403): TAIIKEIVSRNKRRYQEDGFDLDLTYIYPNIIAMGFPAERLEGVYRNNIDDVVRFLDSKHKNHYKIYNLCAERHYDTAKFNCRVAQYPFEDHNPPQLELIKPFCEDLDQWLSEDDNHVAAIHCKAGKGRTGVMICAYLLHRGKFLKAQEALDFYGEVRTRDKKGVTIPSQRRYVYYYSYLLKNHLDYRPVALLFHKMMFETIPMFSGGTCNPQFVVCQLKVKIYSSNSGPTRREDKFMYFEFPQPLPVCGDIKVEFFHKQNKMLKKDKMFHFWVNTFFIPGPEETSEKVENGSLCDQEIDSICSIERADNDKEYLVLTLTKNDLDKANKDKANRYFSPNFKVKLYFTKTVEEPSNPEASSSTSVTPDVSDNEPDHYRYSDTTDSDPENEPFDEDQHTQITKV

[2] = molecular target: T1, PTEN (phosphatase and tensin homologue deleted on Chromosome 10); assay: SPR, PTEN immobilised on CM5 chip, Biacore T200, […] Langmuir with mass transport; format: binding; settings: 25 °C, HBS; PIP3 25-400 μM; acyl chains of PIP3 not told

Molecule | malachite green phosphate release from PIP3 [1] | K D [2]
O=P(O)(O)O[C@H]1[C@H](OP(=O)(O)O)[C@@H](OP(=O)(O)O)[C@H](OP(=O)(O)O)[C@@H](OP(=O)(O)O)[C@H]1OP(=O)(O)O [IHP] | IHP inhibits hydrolysis in a concentration‐dependent manner | –
PIP3 | – | ~ 2.5 micromoles
